Measurements: patent publication US12090163B2, “Pharmaceutical compositions” (CIPLA LIMITED, priority 2017, dated 2024)
Read-outs that look alike come from different tables or passages of the source.

Legend:
HIV-1NL4-3 = assay: Two-drug combination anti-HIV assay in MT4 cells, MacSynergy II analysis; format: cell-based; parameters: Antiviral Activity Synergy volume / Antiviral Activity Antagonism volume: unit not given here
Description: (§1) This two-drug combination analysis study was performed using the Prichard and Shipman MacSynergy II three dimensional model for statistical evaluation of combination anti-HIV assays. Using a standardized microtiter plate format, each combination assay was performed in MT4 cells acutely infected with HIV-1NL4-3.
(§2) MT4 cells (obtained from the NIH AIDS Research and Reference Reagent Program) were passaged in T-75 flasks prior to use in the antiviral assay. On the day preceding the assay, the cells were split 1:2 to assure they were in an exponential growth phase at the time of infection. Total cell and viability quantification was performed using a hemacytometer and trypan blue exclusion. Cells with greater than 95% cell viability were utilized in the assay. The cells were re-suspended in tissue culture medium and added to the drug-containing microtiter plates in a volume of 110 μL and at a seeding density of 5.0×10^3 cells/well.
(§3) Combination antiviral efficacy was evaluated on three identical assay plates (i.e., triplicate measurements) that included cell control wells (cells only) and virus control wells (cells plus virus). Combination cytotoxicity was evaluated in parallel on two identical assay plates (i.e., duplicate measurements) that included cell control wells.

MT4 cells = assay: Two-drug combination cytotoxicity in uninfected MT4 cells, MacSynergy II analysis
Description: as §1, §2, §3

[1] = two-drug combination with the pivalate fumarate, MT4 cells infected with HIV-1NL4-3
[2] = two-drug combination with the pivalate fumarate, HIV-1NL4-3 in MT4 cells
[3] = two-drug combination with the pivalate fumarate, uninfected MT4 cells

In the case of `O=C1Nc2ccc(Cl)cc2[C@@](C#CC2CC2)(C(F)(F)F)O1` [Efavirenz], the “Antiviral Activity Antagonism volume” value (HIV-1NL4-3; [1]) is reported as −5.92 and the “Antiviral Activity Synergy volume” value (HIV-1NL4-3; [1]) is reported as 79.0.

With `Cc1ccnc2c1NC(=O)c1cccnc1N2C1CC1` [Nevirapine] the “Interpretation Antiviral” value (HIV-1NL4-3; [2]) was “Additive”, the “Antiviral Activity Antagonism volume” value (HIV-1NL4-3; [1]) was −9.09 and the “Antiviral Activity Synergy volume” value (HIV-1NL4-3; [1]) was 47.6.

For `COC(=O)N[C@H](C(=O)N[C@@H](Cc1ccccc1)[C@@H](O)CN(Cc1ccc(-c2ccccn2)cc1)NC(=O)[C@@H](NC(=O)OC)C(C)(C)C)C(C)(C)C` [Atazanavir], the “Interpretation Antiviral” value (HIV-1NL4-3; [2]) was “Additive”, the “Antiviral Activity Antagonism volume” value (HIV-1NL4-3; [1]) was −3.50 and the “Antiviral Activity Synergy volume” value (HIV-1NL4-3; [1]) was 39.1.

For `Cc1nnc(C(=O)NC(C)(C)c2nc(C(=O)NCc3ccc(F)cc3)c(O)c(=O)n2C)o1` [Raltegravir], the “Antiviral Activity Antagonism volume” value (HIV-1NL4-3) was 1.61/−2.72, the “Antiviral Activity Synergy volume” value (HIV-1NL4-3) was 1.61/−2.72 and the “Interpretation Antiviral” value (HIV-1NL4-3) was “Additive”. The “Cytotoxicity Antagonism volume” value (MT4 cells; [3]) was −4.70 and the “Interpretation Cytotoxicity” value (MT4 cells; [3]) was “Additive”.

With `Nc1nc(=O)n([C@@H]2CS[C@H](CO)O2)cc1F` [Emtricitabine] the “Antiviral Activity Antagonism volume” value (HIV-1NL4-3; [1]) was −8.75 and the “Antiviral Activity Synergy volume” value (HIV-1NL4-3; [1]) was 98.8.

With `CC(C)c1nc(CN(C)C(=O)N[C@@H](CCN2CCOCC2)C(=O)N[C@H](CC[C@H](Cc2ccccc2)NC(=O)OCc2cncs2)Cc2ccccc2)cs1` [Cobicistat] the “Interpretation Antiviral” value (HIV-1NL4-3; [2]) was “Additive”, the “Antiviral Activity Antagonism volume” value (HIV-1NL4-3; [1]) was −6.12 and the “Antiviral Activity Synergy volume” value (HIV-1NL4-3; [1]) was 0.

With “Tenofovir alafenamide hemifumarate [TAF]” the “Interpretation Antiviral” value (HIV-1NL4-3; [2]) was “Additive”, the “Antiviral Activity Antagonism volume” value (HIV-1NL4-3; [1]) was −47.1 and the “Antiviral Activity Synergy volume” value (HIV-1NL4-3; [1]) was 41.2. The “Cytotoxicity Antagonism volume” value (MT4 cells; [3]) was 0/0, the “Cytotoxicity Synergy volume” value (MT4 cells; [3]) was 0/0 and the “Interpretation Cytotoxicity” value (MT4 cells; [3]) was “Additive”.

For `C[C@H](Cn1cnc2c(N)ncnc21)OCP(=O)(O)O` [Tenofovir, 9-R-[(2-phosphonomethoxy)propyl]adenine], the “Antiviral Activity Antagonism volume” value (HIV-1NL4-3) was 79.0/−7.08, the “Antiviral Activity Synergy volume” value (HIV-1NL4-3) was 79.0/−7.08 and the “Cytotoxicity Antagonism volume” value (MT4 cells) was 0/0. The “Cytotoxicity Synergy volume” value (MT4 cells) was 0/0 and the “Interpretation Cytotoxicity” value (MT4 cells; [3]) was “Additive”.

With `COc1cc2c(cc1Cc1cccc(Cl)c1F)c(=O)c(C(=O)O)cn2[C@H](CO)C(C)C` [Elvitegravir] the “Antiviral Activity Antagonism volume” value (HIV-1NL4-3; [1]) was 0 and the “Antiviral Activity Synergy volume” value (HIV-1NL4-3; [1]) was 67.3.

`C[C@@H]1CCO[C@H]2Cn3cc(C(=O)NCc4ccc(F)cc4F)c(=O)c(O)c3C(=O)N12` [Dolutegravir] was tested, and the “Interpretation Antiviral” value (HIV-1NL4-3; [2]) was “Additive”, the “Antiviral Activity Antagonism volume” value (HIV-1NL4-3; [1]) was −4.46 and the “Antiviral Activity Synergy volume” value (HIV-1NL4-3; [1]) was 17.9.

With `CC(C)CN(C[C@@H](O)[C@H](Cc1ccccc1)NC(=O)O[C@H]1CO[C@H]2OCC[C@H]21)S(=O)(=O)c1ccc(N)cc1` [Darunavir] the “Antiviral Activity Antagonism volume” value (HIV-1NL4-3) was 188/−36.5 and the “Antiviral Activity Synergy volume” value (HIV-1NL4-3) was 188/−36.5.
